From patent US20250270173A1, “PYRIDINE DERIVATIVES FOR TREATING PSYCHIATRIC DISORDERS” (GILGAMESH PHARMACEUTICALS, INC., priority 2022, published 2025)
Several values for one entry are separate records, joined by “and”; a condition that tells them apart may be missing. Equal values may be shown once. Read-outs that look alike come from different tables or passages of the source.

Key:
[1] = molecular target: human 5-HT2C receptor (Homo sapiens (Human), UniProt P28335); experiment: FLIPR Ca2+ flux functional assay at 5-HT2C (Eurofins DiscoverX); type: cell-based; conditions: for 5-HT2C % Act @ Max Conc.: Ca2+ flux, human 5-HT2C, at max concentration
Sequence of human 5-HT2C receptor (P28335 whole entry, looked up): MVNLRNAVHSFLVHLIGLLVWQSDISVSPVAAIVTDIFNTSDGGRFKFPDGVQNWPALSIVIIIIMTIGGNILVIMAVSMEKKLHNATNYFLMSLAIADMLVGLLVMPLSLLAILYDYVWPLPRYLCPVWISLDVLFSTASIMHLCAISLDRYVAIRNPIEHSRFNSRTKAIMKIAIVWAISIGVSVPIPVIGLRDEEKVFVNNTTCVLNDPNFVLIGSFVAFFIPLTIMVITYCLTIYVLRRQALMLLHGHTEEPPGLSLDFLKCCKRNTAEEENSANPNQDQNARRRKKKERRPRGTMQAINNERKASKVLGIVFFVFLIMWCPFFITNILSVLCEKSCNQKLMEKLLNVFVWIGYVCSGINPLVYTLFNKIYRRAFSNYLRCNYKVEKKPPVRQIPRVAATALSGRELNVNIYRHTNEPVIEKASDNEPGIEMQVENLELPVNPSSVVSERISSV
Procedure: Functional Assays at 5-HT2C Receptors. […] Probenecid was prepared fresh. Cells were loaded with dye prior to testing and incubated at 37° C. for 30-60 minutes. After dye loading, cells were removed from the incubator and 10 μL HBSS/20 mM Hepes was added. 3× vehicle was included in the assay buffer. Cells were incubated for 30 mins at room temperature in the dark to equilibrate plate temperature. Intermediate dilution of sample stocks was performed to generate 4× sample in assay buffer. Compound agonist activity was measured on a FLIPR Tetra (MDS). Calcium mobilization was monitored for 2 minutes and 10 μL 4× sample in HBSS/20 mM Hepes was added to the cells 5 seconds into the assay.

[2] = tested on: C57BL/6 mice; experiment: Automated (video tracking) head twitch response (HTR) assay in mice; type: in vivo; conditions: SC; for ED50: Mus musculus, 20 min, 20 min recording, read-out: ED50; for Most Efficacious Dose; mg/kg: dose giving the most HTR
Procedure: Disclosed compounds were tested for their ability to induce a head twitch response (HTR) in mice using an automated video tracking procedure, with the results summarized in Table 5. […] The phenyl Compound 44 was substantially more efficacious at inducing HTR than its pyridine counterpart Compound 29, in agreement with the generally lower maximal efficacy of the disclosed pyridine compounds for signaling through 5-HT2A receptors.
Animals. Adult male C57BL/6 mice aged 8-10 weeks (body weight 20-25 g) were used in these experiments. Animals were housed under controlled temperatures and 12-hour light/dark cycles (lights on between 07:00-19:00 h), with ad libitum food and water. The protocol was approved by the Institutional Animal Care and Use Committee at the study site. This study was carried out in strict accordance with the recommendations in the Guide for the Care and Use of Laboratory Animals of the National Institutes of Health. All efforts were made to minimize suffering.
Drugs and Drug Administration. […] was commercially obtained. Disclosed compounds were synthesized as described above. They were administered subcutaneously (SC) dissolved in saline (or saline acidified with 1-2 molar equivalents HCl to form the salt in situ for freebase compounds) at a volume of 10 mL/kg. Five doses were tested, with N=5-8 animals/group. Doses were calculated on the basis of the freebase, except for DOI, which was calculated based on the HCl salt.
Procedure. Mice were administered one dose of the drug and immediately placed into a small open field for behavioral observation. High-speed video of animals' behavior was captured continuously for 20 min. Video recordings were imported into an image processing software, which detects multiple points of interest on each animal's body, including the left and right ear. HTR events were defined as periodic deviations of ear locations from temporally averaged ear locations. Predefined thresholds for magnitude and frequency of location deviations were used to filter […] events from random head movements. The method was validated by comparing detected events with manual (human) observations and found to have an accuracy >95%. The total number of HTR events counted during the 20-min recording were determined for each animal at each dose.
Statistical Analysis. Analysis was performed using GraphPad Prism 9. Dose-response curves were fit via non-linear regression using the Gaussian 2020 function in Prism in order to determine the ED50 and Emax for each compound.

[3] = molecular target: T1, 5-HT2A receptor (Homo sapiens (Human), UniProt P28223); experiment: FLIPR Ca2+ flux functional assay at 5-HT2A (HEK293); conditions: for 5-HT2A % Act @ Max Conc.: Ca2+ flux, HEK293, at max concentration
[4] = molecular target: 5-HT2B receptor (Homo sapiens (Human), UniProt P41595); experiment: FLIPR Ca2+ flux functional assay at 5-HT2B (HEK293); conditions: for 5-HT2B % Act @ Max Conc.: Ca2+ flux, HEK293, at max concentration
Sequence of 5-HT2B receptor (P41595 whole entry, looked up): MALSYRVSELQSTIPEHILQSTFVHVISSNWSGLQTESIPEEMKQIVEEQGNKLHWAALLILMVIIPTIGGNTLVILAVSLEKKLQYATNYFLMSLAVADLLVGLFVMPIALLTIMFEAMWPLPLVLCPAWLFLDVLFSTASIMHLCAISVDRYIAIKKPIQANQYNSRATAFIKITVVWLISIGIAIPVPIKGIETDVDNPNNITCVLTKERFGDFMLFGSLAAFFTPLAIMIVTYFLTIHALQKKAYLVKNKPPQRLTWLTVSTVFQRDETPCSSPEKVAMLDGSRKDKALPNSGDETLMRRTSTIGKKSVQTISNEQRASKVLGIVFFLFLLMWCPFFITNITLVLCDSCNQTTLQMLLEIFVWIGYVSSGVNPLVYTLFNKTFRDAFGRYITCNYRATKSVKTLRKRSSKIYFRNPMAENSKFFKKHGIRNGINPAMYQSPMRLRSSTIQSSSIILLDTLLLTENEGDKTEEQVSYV

[5] = molecular target: 5-HT1A receptor (Homo sapiens (Human), UniProt P08908); experiment: FLIPR Ca2+ flux functional assay at 5-HT1A (CHO cells); conditions: for 5-HT1A % Act @ Max Conc.: Ca2+ flux, CHO cells, at max concentration
[6] = molecular target: T1, 5-HT2A receptor; experiment: 5-HT2A receptor radioligand binding with [3H]ketanserin

Structure (SMILES) | EC50 [1] | 5-HT2C % Act @ Max Conc. [1] | ED50 [2] | Emax (HTR counts/20 min) [2] | # HTR/20 min at Most Efficacious Dose [2] | Most Efficacious Dose; mg/kg [2] | EC50 [3] | 5-HT2A % Act @ Max Conc. [3] | EC50 [4] | 5-HT2B % Act @ Max Conc. [4] | EC50 [5] | 5-HT1A % Act @ Max Conc. [5] | Ki ([6]; read-out: Ki at 5-HT2A Receptor (nM) ([3H]ketanserin), HEK293 stable cell line, 1 nM [3H]ketanserin, 1 h, 25 °C) | Ki [6]
COc1cc(Br)c(OC)nc1CCN [Compound 9, 2-(5-bromo-3,6-dimethoxypyridin-2-yl)ethan-1-amine] | 0.0307 µM | 95.94% | 1.38 mg/kg | 49.65 HTR counts/20 min | 45.75 HTR/20 min | (3.2) mg/kg | 0.00981 µM | 96.84% | 0.764 µM | 38.01% | > 100 µM | 2.11% | – | –
CCSc1cc(OC)c(CC(N)CC)nc1OC (centres unmarked) [Compound 24, 1-(5-(ethylthio)-3,6-dimethoxypyridin-2-yl)butan-2-amine] | – | – | – | – | – | – | 0.0746 µM | 77.03% | > 10 µM | 14.99% | > 100 µM | 2.99% | – | –
COc1cc(Cl)c(OC)nc1CCN [Compound 16, 2-(5-chloro-3,6-dimethoxypyridin-2-yl)ethan-1-amine] | – | – | – | – | – | – | 0.0201 µM | 97.33% | 1.4 µM | 38.95% | > 100 µM | 5.31% | 264 nM | –
COc1cc(CCCCC(F)(F)F)c(OC)nc1CCN [Compound 35, 2-(3,6-dimethoxy-5-(5,5,5-trifluoropentyl)pyridin-2-yl)ethan-1-amine] | – | – | – | – | – | – | 0.0385 µM | 48.95% | 0.341 µM | 32.44% | > 100 µM | 41.47% | – | 13.6 nM
CCC(N)Cc1cc(OC)c(C)cc1OC (centres unmarked) [Compound 39, reference compound] | – | 99.3% | – | – | – | – | – | 112.8% | – | 39.2% | – | 8.7% | – | –
CCCc1cc(OC)c(CC(N)CC)cc1OC (centres unmarked) [Compound 40, reference compound] | – | 93.58% | – | – | – | – | – | 84.23% | – | −0.18% | – | 96.43% | – | –
CCCCCCc1cc(OC)c(CCN)nc1OC [Compound 29, 2-(5-hexyl-3,6-dimethoxypyridin-2-yl)ethan-1-amine] | – | – | 7.46 mg/kg | 22.11 HTR counts/20 min | 23 HTR/20 min | (3.2) mg/kg | 0.0346 µM | 69.91% | > 10 µM | 7.78% | > 100 µM | – | – | –
CCCCCCc1cc(OC)c(CC(C)N)cc1OC (centres unmarked) [Compound 42, reference compound] | – | 99.8% | – | – | – | – | – | 119.7% | – | 39.8% | – | 30.4% | – | –
COc1cc(C)c(OC)nc1CCN [Compound 8, 2-(3,6-dimethoxy-5-methylpyridin-2-yl)ethan-1-amine] | – | – | – | – | – | – | 0.0658 µM | 85.81% | 1.01 µM | 36.99% | > 100 µM | −0.62% | – | –
CCCCCc1cc(OC)c(CC(N)CC)cc1OC (centres unmarked) [Compound 10, 1-(2,5-dimethoxy-4-pentylphenyl)butan-2-amine] | – | 115% | – | – | – | – | – | 72% and 71.5% | – | 0.211% | – | 33.1% | – | –
COc1cc(C2CC2)c(OC)nc1CCN [Compound 26, 2-(5-cyclopropyl-3,6-dimethoxypyridin-2-yl)ethan-1-amine] | – | – | – | – | – | – | 0.027 µM | 81.58% | > 10 µM | 5.16% | > 100 µM | 2.22% | – | –
CCCCCc1cc(OC)c(CCN)cc1OC [Compound 43, reference compound] | – | 85.6% | – | – | – | – | – | 105.2% | – | 62.2% | – | 18.9% | – | –
CCCCCc1nc(OC)c(CC(N)CC)nc1OC (centres unmarked) [Compound 12, 1-(3,6-dimethoxy-5-pentylpyrazin-2-yl)butan-2-amine] | – | – | – | – | – | – | > 3.16 µM | 37.1% | – | 7.05% | 33.3 µM | 170% | – | –
CCSc1cc(OC)c(CC(C)N)nc1OC (centres unmarked) [Compound 23, 1-(5-(ethylthio)-3,6-dimethoxypyridin-2-yl)propan-2-amine] | – | – | – | – | – | – | 0.00303 µM | 106.2% | 0.0445 µM | 67.46% | > 100 µM | 3.21% | – | –
CCC(N)Cc1nc(OC)c(C2CC2)cc1OC (centres unmarked) [Compound 28, 1-(5-cyclopropyl-3,6-dimethoxypyridin-2-yl)butan-2-amine] | – | – | – | – | – | – | 0.161 µM | 71.49% | – | – | – | – | – | –
CCC(N)Cc1nc(OC)c(C)cc1OC (centres unmarked) [Compound 2, 1-(3,6-dimethoxy-5-methylpyridin-2-yl)butan-2-amine] | – | – | – | – | – | – | 0.847 µM | 69.78% | – | – | – | – | – | –
CCCc1cc(OC)c(CC(N)CC)nc1OC (centres unmarked) [Compound 37, 1-(3,6-dimethoxy-5-propylpyridin-2-yl)butan-2-amine] | – | – | – | – | – | – | 0.128 µM | 49.58% | > 10 µM | 12.18% | > 100 µM | 42.24% | – | –
COc1cc(Br)c(OC)nc1CC(C)N (centres unmarked) [Compound 6, 1-(5-bromo-3,6-dimethoxypyridin-2-yl)propan-2-amine] | – | – | – | – | – | – | 0.00213 µM | 95.6% | 0.17 µM | 70.54% | > 100 µM | 1.66% | – | –
CCc1cc(OC)c(CC(N)CC)nc1OC (centres unmarked) [Compound 21, 1-(5-ethyl-3,6-dimethoxypyridin-2-yl)butan-2-amine] | – | – | – | – | – | – | 0.17 µM | 73.61% | – | – | – | – | – | –
CCCCCCc1cc(OC)c(CCN)cc1OC [Compound 44, reference compound] | – | 82.62% | 1.36 mg/kg | 57.87 HTR counts/20 min | 58.0 HTR/20 min | (3.2) mg/kg | – | 90.51% | – | 46.79% | – | 183.21% | – | –
CCCCCc1cc(OC)c(CC(C)N)cc1OC (centres unmarked) [Compound 41, reference compound] | – | 90.1% | – | – | – | – | – | 100.2% | – | 20.0% | – | 15.0% | – | –
CCSc1cc(OC)c(CCN)nc1OC [Compound 22, 2-(5-(ethylthio)-3,6-dimethoxypyridin-2-yl)ethan-1-amine] | – | – | – | – | – | – | 0.00409 µM | 94.73% | 0.215 µM | 22.75% | > 100 µM | −1.51% | – | –
CCCCCc1nc(OC)c(CC(N)CC)cc1OC (centres unmarked) [Compound 11, 1-(2,5-dimethoxy-6-pentylpyridin-3-yl)butan-2-amine] | – | – | – | – | – | – | 0.356 µM | 62.2% | – | 6.92% | 19.2 µM | 197% | – | –
COc1cc(CCN)cc(OC)c1OC [Mescaline, reference compound] | – | 91.1% | – | – | – | – | – | 102% | – | 45.4% | – | −5.03% | – | –
COc1cc(C)c(OC)nc1CC(C)N (centres unmarked) [Compound 5, 1-(3,6-dimethoxy-5-methylpyridin-2-yl)propan-2-amine] | – | – | – | – | – | – | 0.03 µM | 104.25% | 0.575 µM | 68.46% | > 100 µM | 0.59% | – | –
CCC(N)Cc1nc(OC)c(Br)cc1OC (centres unmarked) [Compound 3, 1-(5-bromo-3,6-dimethoxypyridin-2-yl)butan-2-amine] | – | – | – | – | – | – | 0.136 µM | 70.17% | – | – | – | – | – | –
